Laboratory results: publication PMC6934184, “Selective DNA-PKcs inhibition extends the therapeutic index of localized radiotherapy and chemotherapy” (The Journal of Clinical Investigation, 2019)

Target: T1, GRK7 (Homo sapiens, UniProt Q8WTQ7)
T1 construct: purchased Thermo Fisher Scientific (Life Technologies) SelectScreen
Experiment: SelectScreen Z'LYTE
Type: biochemical
How it was run: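 SelectScreen broad panel; activity (Z'LYTE, Adapta) plus binding formats. ATP: Km app for CSF1R Z'LYTE; 10 for CAMK1 Adapta. Readout = % per kinase.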

T1 sequence (Q8WTQ7 whole entry): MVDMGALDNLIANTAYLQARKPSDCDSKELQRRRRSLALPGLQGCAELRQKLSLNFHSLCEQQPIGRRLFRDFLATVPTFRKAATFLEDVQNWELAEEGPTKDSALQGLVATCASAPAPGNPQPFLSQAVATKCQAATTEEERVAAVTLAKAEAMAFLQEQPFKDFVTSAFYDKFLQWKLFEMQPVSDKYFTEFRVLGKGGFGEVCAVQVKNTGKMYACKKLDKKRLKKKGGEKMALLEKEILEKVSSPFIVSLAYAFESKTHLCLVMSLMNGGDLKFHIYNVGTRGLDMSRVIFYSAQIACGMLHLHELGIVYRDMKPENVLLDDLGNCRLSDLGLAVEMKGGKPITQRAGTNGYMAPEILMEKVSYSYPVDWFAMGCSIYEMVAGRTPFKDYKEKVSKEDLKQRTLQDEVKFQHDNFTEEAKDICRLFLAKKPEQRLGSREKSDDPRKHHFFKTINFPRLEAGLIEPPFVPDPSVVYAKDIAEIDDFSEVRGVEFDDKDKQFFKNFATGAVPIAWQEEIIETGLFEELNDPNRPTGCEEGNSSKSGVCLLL

`CN(C(=O)CN1CCOCC1)c1ccc2sc3c(-c4cccc5c(=O)cc(N6CC7CCC(C6)O7)oc45)cccc3c2c1` [NU5455] showed an inhibition at 1 µM of -3%.
